The values that follow come from PubChem BioAssay AID256 (DTP/NCI, 2004).

This assay concerns CD2F1 mice, L1210 leukemia ip, survival T/C. Nature of the assay: NCI In Vivo Anticancer Drug Screen. Data for tumor model L1210 Leukemia (intraperitoneal) in CD2F1 (CDF1) mice. To be noted: higher = longer survival. In short, it runs like this: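 Each value reflects a quotient of treated over vehicle control outcomes in mice with a transplanted tumor.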
[1] abbreviates: endpoint: mean survival time, dose: 100.0 mg/kg/injection, schedule: Q04DX002 (ip), vehicle: saline with Tween-80.
The mark [2] stands for this setting: endpoint: mean survival time, dose: 200.0 mg/kg/injection, schedule: Q04DX002 (ip), vehicle: saline with Tween-80.
The mark [3] stands for this setting: endpoint: mean survival time, dose: 400.0 mg/kg/injection, schedule: Q04DX002 (ip), vehicle: saline with Tween-80.
Setting [4] is: endpoint: mean survival time, dose: 100.0 mg/kg/injection, schedule: Q01DX001 (ip), vehicle: saline with Tween-80.
The mark [5] stands for this setting: endpoint: mean survival time, dose: 200.0 mg/kg/injection, schedule: Q01DX001 (ip), vehicle: saline with Tween-80.
The mark [6] stands for this setting: endpoint: mean survival time, dose: 100.0 mg/kg/injection, schedule: Q01DX009 (ip), vehicle: saline with Tween-80.
The mark [7] stands for this setting: endpoint: mean survival time, dose: 100.0 mg/kg/injection, schedule: Q04DX003 (ip), vehicle: saline with Tween-80.
The mark [8] stands for this setting: endpoint: mean survival time, dose: 200.0 mg/kg/injection, schedule: Q01DX009 (ip), vehicle: saline with Tween-80.
The mark [9] stands for this setting: endpoint: mean survival time, dose: 200.0 mg/kg/injection, schedule: Q04DX003 (ip), vehicle: saline with Tween-80.
Where [10] appears, read: endpoint: mean survival time, dose: 400.0 mg/kg/injection, schedule: Q01DX009 (ip), vehicle: saline with Tween-80.
Setting [11] is: endpoint: mean survival time, dose: 400.0 mg/kg/injection, schedule: Q04DX003 (ip), vehicle: saline with Tween-80.

Values joined by “and” are separate entries in the source; they are usually repeats but may differ in a detail not shown here. Equal values may be shown once. Inconclusive results and toxic doses are left out.

Take `O=C(O)c1cccc(F)c1Br`: the T/C reads like this: under setting [1], 95 % of control; under setting [2], 95 % of control; under setting [3], 87 % of control.

Consider `NNN1CCN(N)CC1`, for which the T/C runs as follows: under setting [4], 103 % of control; under setting [5], 111 % of control; (endpoint: mean survival time, dose: 400.0 mg/kg/injection, schedule: Q01DX001 (ip), vehicle: saline with Tween-80) 91 % of control.

As for `CCN(Cc1ccc(Cl)c(Cl)c1)c1ccc2nc(N)nc(N)c2c1C`, the T/C (endpoint: mean survival time, dose: 1.5 mg/kg/injection, schedule: Q01DX009 (ip), vehicle: water) is 97 % of control; the T/C (endpoint: mean survival time, dose: 3.0 mg/kg/injection, schedule: Q01DX009 (ip), vehicle: water) was 106 % of control; the T/C (endpoint: mean survival time, dose: 24.0 mg/kg/injection, schedule: Q01DX009 (ip), vehicle: water) was 101 % of control; the T/C (endpoint: median survival time, dose: 1.5 mg/kg/injection, schedule: Q01DX009 (ip), vehicle: water) was 103 % of control; the T/C (endpoint: median survival time, dose: 3.0 mg/kg/injection, schedule: Q01DX009 (ip), vehicle: water) was 111 % of control; the T/C (endpoint: median survival time, dose: 6.0 mg/kg/injection, schedule: Q01DX009 (ip), vehicle: water) is 112 % of control.

Take `O=C(COc1ccc(Cl)cc1)Oc1c(Cl)cc(Cl)cc1Cl`: the T/C by setting is: under setting [1], 98 % of control; under setting [2], 98 % of control; under setting [3], 94 % of control.

With `CCN(N=O)C(=O)Nc1ccc(C2CC(=O)N(C)C2=O)cc1` (centres undefined), the T/C (endpoint: mean survival time, dose: 12.5 mg/kg/injection, schedule: Q01DX001 (ip), vehicle: distilled water + Tween-80) is 99 % of control; the T/C (endpoint: mean survival time, dose: 25.0 mg/kg/injection, schedule: Q01DX001 (ip), vehicle: distilled water + Tween-80) was 111 % of control; the T/C (endpoint: mean survival time, dose: 50.0 mg/kg/injection, schedule: Q01DX001 (ip), vehicle: distilled water + Tween-80) is 94 % of control and 98 % of control and 108 % of control; the T/C (endpoint: mean survival time, dose: 100.0 mg/kg/injection, schedule: Q01DX001 (ip), vehicle: distilled water + Tween-80) is 122 % of control and 94 % of control and 96 % of control; the T/C (endpoint: mean survival time, dose: 200.0 mg/kg/injection, schedule: Q01DX001 (ip), vehicle: distilled water + Tween-80) was 99 % of control and 101 % of control.

Regarding `Cc1c(N=O)c(-c2ccccc2)n(O)[n+]1[O-]`, the T/C was 104 % of control (endpoint: mean survival time, dose: 50.0 mg/kg/injection, schedule: Q01DX009 (ip), vehicle: Klucel (hydroxypropylcellulose) (HPC)); 104 % of control (endpoint: mean survival time, dose: 100.0 mg/kg/injection, schedule: Q01DX009 (ip), vehicle: Klucel (hydroxypropylcellulose) (HPC)); 101 % of control (endpoint: mean survival time, dose: 200.0 mg/kg/injection, schedule: Q01DX009 (ip), vehicle: Klucel (hydroxypropylcellulose) (HPC)).

Regarding `Cc1ccccc1CN1C2=NCCN2C(=O)C2=C1CCN(S(=O)(=O)c1ccc(Cl)c(S(N)(=O)=O)c1)C2`, the T/C was 95 % of control (endpoint: median survival time, dose: 25.0 mg/kg/injection, schedule: Q01DX009 (ip), vehicle: saline); 100 % of control (endpoint: median survival time, dose: 50.0 mg/kg/injection, schedule: Q01DX009 (ip), vehicle: saline); 93 % of control (endpoint: median survival time, dose: 100.0 mg/kg/injection, schedule: Q01DX009 (ip), vehicle: saline); 88 % of control (endpoint: median survival time, dose: 400.0 mg/kg/injection, schedule: Q01DX009 (ip), vehicle: saline).

As for `CCN(CC)C(=O)N1CCN(c2ccccc2)CC1`, the T/C is, setting by setting: (endpoint: mean survival time, dose: 100.0 mg/kg/injection, schedule: Q04DX003 (ip), vehicle: saline) 98 % of control; (endpoint: mean survival time, dose: 200.0 mg/kg/injection, schedule: Q04DX003 (ip), vehicle: saline) 93 % of control.

Turning to `Clc1ccc(C2c3ccccc3C[n+]3ccccc32)cc1` (centres undefined), the T/C is, setting by setting: (endpoint: mean survival time, dose: 12.5 mg/kg/injection, schedule: Q04DX003 (ip), vehicle: Klucel (hydroxypropylcellulose) (HPC)) 93 % of control; (endpoint: mean survival time, dose: 25.0 mg/kg/injection, schedule: Q04DX003 (ip), vehicle: Klucel (hydroxypropylcellulose) (HPC)) 93 % of control.

`COc1cc(OC)c2c(c1Cl)OC(C(C)=O)C2=O` (centres undefined): the T/C was 97 % of control (endpoint: mean survival time, dose: 50.0 mg/kg/injection, schedule: Q01DX009 (ip), vehicle: saline with Tween-80); 102 % of control under setting [6]; 93 % of control under setting [7]; 96 % of control under setting [8]; 102 % of control under setting [9].

For the compound `CC12COC(=O)C1(C)C1CCC2O1` (centres undefined), the T/C runs as follows: (endpoint: mean survival time, dose: 1.0 mg/kg/injection, schedule: Q04DX002 (ip), vehicle: saline) 92 % of control; (endpoint: mean survival time, dose: 2.0 mg/kg/injection, schedule: Q04DX002 (ip), vehicle: saline) 88 % of control; (endpoint: mean survival time, dose: 4.0 mg/kg/injection, schedule: Q04DX002 (ip), vehicle: saline) 92 % of control; (endpoint: mean survival time, dose: 5.0 mg/kg/injection, schedule: Q01DX002 (ip), vehicle: saline with Tween-80) 100 % of control; (endpoint: mean survival time, dose: 10.0 mg/kg/injection, schedule: Q01DX002 (ip), vehicle: saline with Tween-80) 108 % of control.

In the case of `CCOC(=O)C(C)(C)CN1COCC1(C)C`, the T/C under setting [4] is 112 % of control and the T/C under setting [5] is 109 % of control.

For the compound `CC(CN=Cc1ccccc1O)N=Cc1ccccc1O.[Cu]` (centres undefined), the T/C (endpoint: mean survival time, dose: 25.0 mg/kg/injection, schedule: Q04DX002 (ip), vehicle: saline with Tween-80) is 96 % of control; the T/C (endpoint: mean survival time, dose: 50.0 mg/kg/injection, schedule: Q04DX002 (ip), vehicle: saline with Tween-80) was 103 % of control; the T/C under setting [1] was 100 % of control; the T/C under setting [2] is 103 % of control.

Turning to `Cc1cccc(NC(=O)C2CCC(C)(C(=O)O)C2(C)C)c1` (centres undefined), the T/C under setting [7] was 94 % of control and the T/C under setting [9] was 90 % of control.

`Nc1nc(N)nc(NC(=O)COc2cc(Cl)c(Cl)cc2Cl)n1`: the T/C under setting [6] was 100 % of control; the T/C under setting [7] was 92 % of control; the T/C under setting [8] was 105 % of control; the T/C under setting [10] was 103 % of control; the T/C under setting [11] is 88 % of control.

As to `O=S(=O)(O)C(Nc1ccccn1)c1ccccc1` (centres undefined), the T/C by setting is: (endpoint: mean survival time, dose: 25.0 mg/kg/injection, schedule: Q01DX001 (ip), vehicle: saline with Tween-80) 98 % of control; (endpoint: mean survival time, dose: 50.0 mg/kg/injection, schedule: Q01DX001 (ip), vehicle: saline with Tween-80) 106 % of control; under setting [4], 106 % of control.

For `O=Cc1cc(Cl)ccc1O`, the T/C runs as follows: under setting [6], 108 % of control; under setting [7], 95 % of control; under setting [8], 102 % of control; under setting [9], 95 % of control.

Turning to `NC(CCC(=O)NC(CSC(c1ccccc1)(c1ccccc1)c1ccc(F)cc1)C(=O)NCC(=O)O)C(=O)O` (centres undefined), the T/C was 120 % of control (endpoint: mean survival time, dose: 25.0 mg/kg/injection, schedule: Q01DX009 (ip), vehicle: saline) and 150 % of control (endpoint: mean survival time, dose: 200.0 mg/kg/injection, schedule: Q01DX009 (ip), vehicle: saline).

Regarding `C#CC12CCCCN1CCC2` (centres undefined), the T/C (endpoint: mean survival time, dose: 100.0 mg/kg/injection, schedule: Q01DX001 (ip), vehicle: saline) is 93 % of control and the T/C (endpoint: mean survival time, dose: 200.0 mg/kg/injection, schedule: Q01DX001 (ip), vehicle: saline) is 97 % of control.

For the compound `CS(=O)(=O)OCCN(CCOS(C)(=O)=O)c1ccc(C=Nc2ccc(C(=O)O)c(O)c2)cc1`, the T/C (endpoint: mean survival time, dose: 0.5 mg/kg/injection, schedule: Q01DX009 (ip), vehicle: saline) is 104 % of control; the T/C (endpoint: mean survival time, dose: 1.0 mg/kg/injection, schedule: Q01DX009 (ip), vehicle: saline) was 101 % of control; the T/C (endpoint: mean survival time, dose: 2.0 mg/kg/injection, schedule: Q01DX009 (ip), vehicle: saline) was 107 % of control; the T/C (endpoint: mean survival time, dose: 4.0 mg/kg/injection, schedule: Q01DX009 (ip), vehicle: saline) is 104 % of control.

In the case of `CCCCCCCC(=O)Nc1c(C)cc(C)cc1C`, the T/C was 91 % of control under setting [6], 98 % of control under setting [8] and 92 % of control under setting [10].

On to `O=C1N(Cc2ccccc2)CC2C(c3ccccc3)NNC12O` (centres undefined), for which the T/C was 89 % of control under setting [7] and 101 % of control under setting [11].

Regarding `CSc1ccc(OC(=O)Nc2ccc(C)c([N+](=O)[O-])c2)cc1C`, the T/C by setting is: under setting [7], 92 % of control; under setting [9], 92 % of control; under setting [11], 96 % of control.

Regarding `NCCCC(N)C(=O)O` (centres undefined), the T/C was 111 % of control (endpoint: median survival time, dose: 3.13 mg/kg/injection, schedule: Q04DX002 (ip), vehicle: saline); 117 % of control (endpoint: median survival time, dose: 6.25 mg/kg/injection, schedule: Q04DX002 (ip), vehicle: saline); 108 % of control (endpoint: median survival time, dose: 12.5 mg/kg/injection, schedule: Q04DX002 (ip), vehicle: saline); 105 % of control (endpoint: median survival time, dose: 50.0 mg/kg/injection, schedule: Q04DX002 (ip), vehicle: saline).

Consider `O=C(c1ccccc1)c1ccc(OCCOc2ccc(C(=O)c3ccccc3)cc2)cc1`, for which the T/C reads like this: under setting [7], 96 % of control; under setting [9], 93 % of control; under setting [11], 93 % of control.
